Source: patent publication US10350192B2, “Lactate dehydrogenase inhibitor and antiepileptic drug containing the same” (NATIONAL UNIVERSITY CORPORATION OKAYAMA UNIVERSITY, priority 2015, dated 2019)
Where “and” joins values, the source holds several entries; their conditions need not be identical. Identical values can stand only once. Entries after “also recorded” stand apart in the source; their conditions may differ.

How the values were obtained:
[1] = system: hippocampal sclerosis model mouse; assay: Epileptic spikes in hippocampal sclerosis model mouse (intrahippocampal kainate); format: in vivo
Method: Preparation and measurement of hippocampal sclerosis model mouse (FIGS. 1 to 3): The hippocampal sclerosis model mouse was prepared according to a previous literature (Non-Patent Document 15). Six to seven-week-old ICR mice were used for the experiment. Mice were fully anesthetized with a mixture of ketamine (100 mg/kg) and xylazine (20 mg/kg) and then set on a brain stereotaxic apparatus. Using a micro glass electrode and a Hamilton syringe from above the hippocampus of the head, a trace amount of kainate (0.8 nmol, 40 nL) for inducing epilepsy was injected into the dorsal hippocampus (1.6 mm behind the bregma, 1.6 mm laterally from the centerline, 1.4 mm deep from the brain surface), and then a metal electrode (a diameter of 200 μm) for epileptic electroencephalography was embedded near the kainic acid injection site. In addition, a small plastic U-shaped frame for head fixation required for in vivo electrical measurements was also attached to the head. After 2 weeks or more from surgery, epileptic spikes in the hippocampus were measured. The head was fixed via the U-shaped frame. Epileptic spikes were amplified, then measured via a band-pass filter (0.5-30 Hz) and taken into a computer using an AD converter. After measurement of the baseline electroencephalogram for 30 minutes, stiripentol (300 mg/kg), isosafrole (100-300 mg/kg), sodium oxamate (250-500 mg/kg), or physiological saline was intraperitoneally administered, and then further recording was conducted for 1 hour. Sodium oxamate was dissolved in water, and stiripentol and isosafrole were dissolved in sodium carboxymethyl cellulose (1%) and administered intraperitoneally. In data analysis, high-amplitude epilepsy spikes with an amplitude of 0.5 mV or more were counted 30 minutes before and after administration, respectively, and the efficacy was evaluated by normalization using the number of epileptic spikes before administration. In the observation of morphological changes due to hippocampal sclerosis, the brain was sliced to 300 μm thickness, fixed with 10% formalin, and stained with 0.05% cresylviolet.
Medial temporal lobe epilepsy with hippocampal sclerosis is a typical refractory epilepsy in adults (epilepsy for which existing drugs are not effective). First, according to a previous literature (Non-Patent Document 15), a trace amount of kainic acid was injected to a hippocampus to prepare hippocampal sclerosis model mouse (FIG. 1A). […] This is the same finding as the already reported hippocampal sclerosis model mouse (Non-Patent Document 15), which is similar to the symptom observed in human hippocampal sclerosis (Non-Patent Document 16). When recording on the hippocampus, spontaneous high-amplitude epileptic spikes were observed (FIG. 1C; arrowhead). […]

[2] = biological target: human LDH-1 (Homo sapiens, UniProt P07195); assay: Lactate dehydrogenase activity by NADH light absorption at 340 nm, LDH-1; format: biochemical; details: 500 μM
human LDH-1, sequence (P07195 2-334 limits assumed): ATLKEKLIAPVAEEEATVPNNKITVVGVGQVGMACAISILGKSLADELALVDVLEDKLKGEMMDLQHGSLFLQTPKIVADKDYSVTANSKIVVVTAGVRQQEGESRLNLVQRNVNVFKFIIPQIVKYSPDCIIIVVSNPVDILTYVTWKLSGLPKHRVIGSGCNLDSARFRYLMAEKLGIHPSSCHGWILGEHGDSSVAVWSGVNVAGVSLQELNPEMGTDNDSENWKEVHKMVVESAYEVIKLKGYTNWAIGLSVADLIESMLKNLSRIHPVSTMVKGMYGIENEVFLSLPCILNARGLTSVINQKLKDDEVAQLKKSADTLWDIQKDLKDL
Method: (§1) Evaluation of inhibition of lactate dehydrogenase by isosafrole (FIG. 4): The activity of lactate dehydrogenase was measured by a versatile method based on light absorption of NADH. Lactate dehydrogenase is an enzyme that interconverts pyruvate and lactate. At that time, NADH and NAD are also interconverted. For lactate dehydrogenase activity from lactate to pyruvate, lactate (20 mM), NAD (200 μM) and lactate dehydrogenase were added and the reaction rate of NADH produced was measured. On the other hand, for the lactate dehydrogenase activity from pyruvate to lactate, pyruvate (1.0 mM), NADH (200 μM) and lactate dehydrogenase were added and the reaction rate of decreasing NADH was measured. Both reactions were carried out at 37° C. in 100 mM sodium phosphate buffer (pH7.3). The light absorption of NADH at 340 nm was measured using an absorptiometer at 30 second intervals for 3.5 minutes to determine the reaction rate. Two kinds of human lactate dehydrogenase (human LDH-1 and LDH-5) were examined as lactate dehydrogenase. The amount of lactate dehydrogenase was set so that the maximum rates of the two lactate dehydrogenases were approximately the same: 0.0033 units/ml of LDH-1 and 0.01 units/ml of LDH-5 for the activity from lactate to pyruvate; and 0.0017 units/ml of LDH-1 and 0.0033 units/ml of LDH-5 for the activity from pyruvate to lactate. […]

[3] = biological target: T1, human LDH-5 (Homo sapiens, UniProt P00338); assay: Lactate dehydrogenase activity by NADH light absorption at 340 nm, LDH-5; format: biochemical; details: 500 μM
Method: as §1

[4] = biological target: T1, human LDH-5; assay: Lactate dehydrogenase inhibition rate, diaphorase/INT formazan coloring reaction (492 nm); format: biochemical
Method: Identification of a lactate dehydrogenase inhibitor having isosafrole as a scaffold (FIGS. 5 to 7): Since NADH absorbs light in the ultraviolet region (340 nm) and many compounds absorb the wavelength, NADH is not suitable for screening using a compound library. Therefore, in order to evaluate the lactate dehydrogenase activity from pyruvate to lactate, pyruvate (100 μM), NADH (100 μM) and lactate dehydrogenase (0.015 U/mL of human LDH-5) were firstly added, then allowed to react in a 100 mM sodium phosphate buffer (pH7.3) at 37° C. for 60 minutes (LDH enzyme reaction, 200 μL/well). At this stage, the background absorbance at 492 nm was first measured with a plate reader (absorbance before coloring reaction). Next, in order to measure the amount of NADH remaining in the LDH enzyme reaction, 100 μL/well of a coloring solution in which diaphorase (25 U/mL) and INT (5 mM) were dissolved was added, and then allowed to react in a 100 mM sodium phosphate buffer (pH7.3) at 37° C. for 10 minutes (coloring reaction). Since INT changes to INT formazan by diaphorase in the presence of NADH and develops color, the absorbance at 492 nm of INT formazan was measured with a plate reader (absorbance after coloring reaction).
Calculation of the inhibition rate (% Inhibition) is as follows. ΔA when the above reaction was carried out under the condition that lactate dehydrogenase was present was taken as “0% control value”, and ΔA when the above reaction was carried out under the condition that lactate dehydrogenase was absent was taken as “100% control value”. […] Then, the same reaction as the 0% control was carried out in the presence of a compound having isosafrole as a scaffold, and resultant ΔA was defined as “ΔA in the presence of the compound”. […] Specifically, inhibition rate is calculated as follows: Inhibition rate (%)=100×(ΔA in the presence of the compound−0% control value)/(100% control value−0% control value). Compounds showing inhibition rate of 100% (±25%) were described in FIGS. 6 and 7 as lactate dehydrogenase inhibitor. […]

[5] = system: pentylenetetrazole-induced acute epileptic seizures; details: rats, 300 mg/kg intraperitoneal; cited from earlier work
[6] = rats, 300 mg/kg intraperitoneal; cited from earlier work
[7] = 300 mg/kg intraperitoneal, high-amplitude spikes 30 min after vs before administration

Structure (SMILES) | antiepileptic effect on epileptic spikes [1, 7] | antiepileptic effect on epileptic spikes ([1]; 200-300 mg/kg intraperitoneal) | effect on lactate dehydrogenase activity from lactate to pyruvate ([2]; Lactate→Pyruvate) | effect on lactate dehydrogenase activity from pyruvate to lactate ([2]; Pyruvate→Lactate) | effect on lactate dehydrogenase activity from lactate to pyruvate ([3]; Lactate→Pyruvate) | effect on lactate dehydrogenase activity from pyruvate to lactate ([3]; Pyruvate→Lactate) | inhibition of lactate dehydrogenase (LDH-5) ([4]; 250 μM) | inhibition of lactate dehydrogenase (LDH-5) ([4]; 500 μM) | inhibition of lactate dehydrogenase (LDH-5) ([4]; 500 μM, listed as Isosafrole) | antiepileptic effect on epileptic spikes ([1]; 500 mg/kg intraperitoneal) | suppression of pentylenetetrazole-induced acute epileptic seizures [5] | plasma concentration [6]
C/C=C/c1ccc2c(c1)OCO2 [isosafrole, 5-(1-propenyl)-1,3-benzodioxole] | significantly suppressed; also recorded: remarkable inhibitory effect on epilepsy | remarkable antiepileptic effect | inhibitory effect | inhibitory effect was strong | inhibitory effect | inhibitory effect was strong | not | inhibited | inhibits |  |  | 
NC(=O)C(=O)[O-].[Na+] [sodium oxamate] |  |  |  |  |  |  |  |  |  | weak anti-epileptic effect |  | 
CC(C)(C)C(O)/C=C/c1ccc2c(c1)OCO2 (stereo not shown) [stiripentol, 4-dimethyl-1-[(3,4-methylenedioxy)-phenyl]-1-penten-3-ol] | scarcely inhibited; also recorded: little antiepileptic effect; also recorded: almost no inhibitory effect |  |  |  |  |  |  |  |  |  | suppressed | 20-100 μg/ml and 85-427 μM
